The record followed here is patent US20100068299A1 (priority 2003, published 2010).

The nature of the data set: Reversal of formed copper phosphite precipitate by added agent (Example 1). In kind it is physicochemical. The settings on record: agent added at final concentration of 10 mM; 0.6 g/l Cu(OH)2, 14.4 g/l KH2PO3, 1 g/l K2CO3, pH 5.5.

Regarding `O=C([O-])CN(CCN(CC(=O)[O-])CC(=O)O)CC(=O)O.[Na+].[Na+]` [disodium EDTA], the “effect on formed copper phosphite precipitate” value was “immediately disappeared”.
